Like-named read-outs stand apart in the source and are kept apart here.

Here are results for one molecule from US20250099596A1, “TETRAHYDRONAPHTHALENE COMPOUND, AND PREPARATION METHOD THEREFOR AND USE THEREOF IN MEDICINE” (Jiangsu Hengrui Pharmaceuticals Co., Ltd., priority 2021, published 2025).

This data set is described as follows: Pharmacokinetic evaluation, beagle test. Type of data set: in vivo. The conditions noted are these: beagles; for AUC(0-t): read-out: Area under curve AUC0-t; for half-life: read-out: Half-life T1/2 (converted); for Cmax: read-out: Plasma concentration Cmax. The procedure: With beagles as test animals, the plasma concentrations of the compound of Example 26-1 and Comparative Example 1 were determined by LC/MS/MS at different time points after intragastric (i.g.)/intravenous (i.v.) administration to beagles. The pharmacokinetic behavior of the compound of the present disclosure in beagles was studied and its pharmacokinetic profile was evaluated.
The compound of Example 26-1 and Comparative Example 1 (see patent WO2018102725A1, Example 411), whose structure is shown below:
Sixteen beagles, of which half were male and half female, were evenly divided into 4 groups. The beagles were provided by Shanghai Medicilon Inc. The 4 groups were fasted overnight and then dosed intragastrically and intravenously.
Certain amounts of the compound of Example 26-1 and the compound of Comparative Example 1 were weighed out and mixed with 5% (v/v) DMSO+30% (v/v) PG+30% (v/v) PEG400+35% (v/v) normal saline to make 0.4 mg/mL clear solutions (for the intragastric administration groups) and 0.25 mg/mL clear solutions (for the intravenous administration groups).
The intragastric administration groups: the dose was 2.0 mg/kg, and the volume was 5.0 mL/kg.
The intravenous administration groups: the dose was 0.5 mg/kg, and the volume was 2.0 mL/kg.
The intragastric administration group: Blood (1.0 mL) was collected from the jugular vein or the forelimb vein into EDTA-K2 anticoagulation tubes before administration and 0.25 h, 0.5 h, 1.0 h, 2.0 h, 4.0 h, 6.0 h, 8.0 h, 12.0 h and 24.0 h after administration and centrifuged at 10,000 rpm for 5 min (4° C.). The plasma was separated within 1 h and stored at −80° C. before analysis. The process from blood collection to centrifugation was performed in an ice bath. Three hours after administration, feeding was resumed.
The intravenous administration groups: Blood was collected before administration and 5 min, 0.25 h, 0.5 h, 1.0 h, 2.0 h, 4.0 h, 8.0 h, 12.0 h and 24 h after administration and processed as in the intragastric administration groups.
The plasma concentrations of the test compounds were determined after administration of different concentrations of the test compounds to beagles: plasma samples (50 μL) were collected from beagles at various time points after administration, and proteins were precipitated with 500 μL of methanol (containing 100 ng/mL internal standard Verapamil) for each of the samples; the mixtures were vortexed for 1 min and centrifuged at 18,000 g for 7 min. 500 μL of supernatant was transferred to a 96-well plate. 1 μL of supernatant was collected for LC/MS/MS analysis.

Where [1] appears, read: both sexes, beagle, dog, plasma, iv, i.v., 0.5 mg/kg.
[2] abbreviates: both sexes, beagle, dog, plasma, po, i.g., 2.0 mg/kg.

For `O=C1CCC(N2Cc3cc(N4CCN(CC5CCN(c6ccc([C@@H]7c8ccc(O)cc8CC[C@@H]7c7ccccc7)cc6)CC5)CC4)ccc3C2=O)C(=O)N1` (stereo partly drawn) [Comparative Example 1, reference compound], the “Clearance CL/F” value (i.v., 0.5 mg/kg) is listed as 2.8 mL/min/kg. Further, under setting [1], the AUC(0-t) was determined as 2680 ng·h/mL, the half-life is 486 min and the Cmax was 600 ng/mL. In addition, the Vd/F (both sexes, beagle, dog, plasma, po, i.g., 2.0 mg/kg, read-out: Apparent distribution volume Vz/F) stood at 5.5 L/kg. Under setting [2], the AUC(0-t) was determined as 4050 ng·h/mL, the half-life is 540 min and the Cmax was 324 ng/mL. For the same molecule, under “both sexes, beagle, dog, plasma, po, i.g., 2.0 mg/kg, read-out: Clearance CL/F”, the CL/F turned out to be 7.3 mL/min/kg.
